Data as given in US20100331305A1, “OXO-HETEROCYCLE FUSED PYRIMIDINE COMPOUNDS, COMPOSITIONS AND METHODS OF USE” (Genentech, Inc., priority 2009, published 2010).
Values joined by “and” are separate entries in the source; they are usually repeats but may differ in a detail not shown here. Identical values can stand only once.

Assays:
[1] = tested on: PC3 cells; test: In vitro cell proliferation assay; format: cell-based, human; details: values tied to compounds by order of Table 1
Outline: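 PC3 (or MDAMB361.1) cells, ~10^3/well, settled overnight, then exposed to compound for 3 days; viability read by CellTiter-Glo luminescence (RLU). Alternatively, 4-day compound exposure followed by Alamar Blue for 6 h, fluorescence 544/590 nm; EC50 from sigmoidal dose-response fit.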

[2] = biological target: mTOR enzyme (mTOR(1360-2549)+GBL) (Homo sapiens, UniProt P42345); test: In vitro mTOR kinase assay (TR-FRET); format: biochemical; details: 0.25 nM mTOR+GBL, 8 uM ATP; values tied to compounds by order of Table 1; 'x or y' = two alternative values for separated diastereomers of unassigned stereochemistry; read-out: activity level (Ki) in the mTOR kinase assay
Chain of mTOR enzyme (mTOR(1360-2549)+GBL) (P42345 1360-2549, species assumed): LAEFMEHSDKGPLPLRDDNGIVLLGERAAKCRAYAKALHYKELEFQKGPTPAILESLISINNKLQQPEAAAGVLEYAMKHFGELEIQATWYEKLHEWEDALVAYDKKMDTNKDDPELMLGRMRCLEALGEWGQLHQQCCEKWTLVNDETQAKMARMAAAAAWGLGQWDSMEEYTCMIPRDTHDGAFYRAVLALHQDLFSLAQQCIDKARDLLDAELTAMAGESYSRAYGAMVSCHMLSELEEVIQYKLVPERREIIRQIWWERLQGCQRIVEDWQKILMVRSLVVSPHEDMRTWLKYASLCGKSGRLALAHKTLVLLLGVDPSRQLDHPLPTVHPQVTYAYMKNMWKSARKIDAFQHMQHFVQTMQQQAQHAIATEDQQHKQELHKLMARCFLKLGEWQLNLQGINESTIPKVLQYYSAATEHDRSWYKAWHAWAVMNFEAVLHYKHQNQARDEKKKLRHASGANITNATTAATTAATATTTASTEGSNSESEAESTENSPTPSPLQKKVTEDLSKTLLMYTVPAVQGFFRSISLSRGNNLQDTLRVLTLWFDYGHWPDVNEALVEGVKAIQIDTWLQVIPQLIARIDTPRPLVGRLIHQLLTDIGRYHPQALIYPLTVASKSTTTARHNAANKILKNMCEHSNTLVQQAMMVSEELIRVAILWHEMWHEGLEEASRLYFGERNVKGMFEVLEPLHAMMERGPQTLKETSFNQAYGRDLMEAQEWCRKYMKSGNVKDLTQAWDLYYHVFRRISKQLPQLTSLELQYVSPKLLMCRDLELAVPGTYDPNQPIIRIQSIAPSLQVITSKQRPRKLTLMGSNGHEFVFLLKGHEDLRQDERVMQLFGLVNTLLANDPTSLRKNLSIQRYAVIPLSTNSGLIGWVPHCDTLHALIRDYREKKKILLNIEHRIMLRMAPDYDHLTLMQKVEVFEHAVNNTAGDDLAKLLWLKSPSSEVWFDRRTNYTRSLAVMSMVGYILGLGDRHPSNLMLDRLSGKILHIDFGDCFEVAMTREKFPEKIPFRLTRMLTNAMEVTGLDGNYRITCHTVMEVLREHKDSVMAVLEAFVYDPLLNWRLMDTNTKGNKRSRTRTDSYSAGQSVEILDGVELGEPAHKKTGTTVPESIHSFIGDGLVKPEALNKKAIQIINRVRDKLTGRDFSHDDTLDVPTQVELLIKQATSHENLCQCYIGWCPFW
Chain of mTOR enzyme (mTOR(1360-2549)+GBL) (Q9BVC4 whole entry partner, species assumed): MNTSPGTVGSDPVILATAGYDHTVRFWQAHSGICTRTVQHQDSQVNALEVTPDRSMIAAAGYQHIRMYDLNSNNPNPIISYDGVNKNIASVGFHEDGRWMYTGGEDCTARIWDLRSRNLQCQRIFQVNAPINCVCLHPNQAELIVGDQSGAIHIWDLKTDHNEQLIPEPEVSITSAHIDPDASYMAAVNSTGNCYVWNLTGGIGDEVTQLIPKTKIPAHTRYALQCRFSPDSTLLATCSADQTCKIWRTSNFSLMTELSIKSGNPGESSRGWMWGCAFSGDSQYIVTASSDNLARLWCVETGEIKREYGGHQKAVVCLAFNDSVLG
Outline: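 Compounds were tested in 10-point dose curves from 10 uM top final concentration. The reaction was stopped with 2 nM Tb-anti-p4E-BP1 (T37/T46) antibody plus 10 mM EDTA for 30 minutes, and phospho-4E-BP1 was detected by TR-FRET. Ki apparent was fitted with the Morrison ATP-competitive tight-binding equation.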

[3] = Homo sapiens, PC-3, with PC3 cells

| SMILES | EC50 [1, 3] | Ki [2] | EC50 ([1]; with PC3 cells) |
| --- | --- | --- | --- |
| CCNC(=O)Nc1ccc(-c2nc(N3CCOC[C@@H]3C)c3c(n2)[C@@](C)(CCn2ccnc2C)OC3)cc1 [Example 81 et (R), 1-ethyl-3-(4-((R)-7-methyl-7-(2-(2-methyl-1H-imidazol-1-yl)ethyl)-4-((S)-3-methylmorpholino)-5,7-dihydrofuro[3,4-d]pyrimidin-2-yl)phenyl)urea] | 274 nM | 67 nM |  |
| CC[C@H]1COCCN1c1nc(-c2ccc(Nc3nccc(=O)[nH]3)cc2)nc2c1COCC2 [Example 4, (S)-2-(4-(4-(3-ethylmorpholino)-7,8-dihydro-5H-pyrano[4,3-d]pyrimidin-2-yl)phenylamino)pyrimidin-4(3H)-one] | 30 nM | 1 nM |  |
| O=C(Nc1ccc(-c2nc3c(c(N4[C@@H]5CC[C@H]4COC5)n2)CCCO3)cc1)NC1COC1 [1-(4-(4-((1R,5S)-3-oxa-8-azabicyclo[3.2.1]octan-8-yl)-6,7-dihydro-5H-pyrano[2,3-d]pyrimidin-2-yl)phenyl)-3-(oxetan-3-yl)urea] | 238 nM | 5 nM |  |
| C[C@H]1COCCN1c1nc(-c2ccc(Nc3cccc(=O)[nH]3)cc2)nc2c1CCCO2 [Example 35, (S)-6-(4-(4-(3-methylmorpholino)-6,7-dihydro-5H-pyrano[2,3-d]pyrimidin-2-yl)phenylamino)pyridin-2(1H)-one] | 236 nM | 2 nM |  |
| COCC[C@]1(C)OCc2c(N3CCOC[C@@H]3C)nc(-c3ccc4onc(N)c4c3)nc21 [Example 119 hq^1] | 203 nM | 4300 nM and 1500 nM |  |
| CCNC(=O)Nc1ccc(-c2nc3c(c(N4[C@@H]5CC[C@H]4COC5)n2)CCCO3)cc1 [1-(4-(4-((1R,5S)-3-oxa-8-azabicyclo[3.2.1]octan-8-yl)-6,7-dihydro-5H-pyrano[2,3-d]pyrimidin-2-yl)phenyl)-3-ethylurea] | 108 nM | 1 nM |  |
| C[C@H]1COCCN1c1nc(-c2ccc(Nc3nccc(=O)[nH]3)cc2)nc2c1CCCO2 [Example 34, (S)-2-(4-(4-(3-methylmorpholino)-6,7-dihydro-5H-pyrano[2,3-d]pyrimidin-2-yl)phenylamino)pyrimidin-4(3H)-one] | 45 nM | 1 nM |  |
| CCNC(=O)Nc1ccc(-c2nc(N3CCOC[C@@H]3C)c3c(n2)C(C)(CCn2ccnc2)OC3)cc1 (single isomer, unassigned) [Example 80 es (S)] |  | 2 nM | 316 nM |
| C[C@H]1COCCN1c1nc(-c2ccc(Nc3nccc(=O)[nH]3)cc2)nc2c1COCC2 [Example 28, (S)-2-(4-(4-(3-methylmorpholino)-7,8-dihydro-5H-pyrano[4,3-d]pyrimidin-2-yl)phenylamino)pyrimidin-4(3H)-one] | 194 nM | 2 nM |  |
| C[C@H]1COCCN1c1nc(-c2ccc(Nc3cccc(=O)[nH]3)cc2)nc2c1COCC2 [Example 29, (S)-6-(4-(4-(3-methylmorpholino)-7,8-dihydro-5H-pyrano[4,3-d]pyrimidin-2-yl)phenylamino)pyridin-2(1H)-one] | 341 nM | 5 nM |  |
| C[C@H]1COCCN1c1nc(-c2ccc(NC(=O)NC3CCC3)cc2)nc2c1COCC2 [Example 26, (S)-1-cyclobutyl-3-(4-(4-(3-methylmorpholino)-7,8-dihydro-5H-pyrano[4,3-d]pyrimidin-2-yl)phenyl)urea] | 1600 nM | 14 nM |  |
| CCNC(=O)Nc1ccc(-c2nc(N3CCOC[C@@H]3C)c3c(n2)[C@](C)(CCN2CCOCC2)OC3)cc1 [Example 76 eo (S), 1-ethyl-3-(4-((S)-7-methyl-4-((S)-3-methylmorpholino)-7-(2-morpholinoethyl)-5,7-dihydrofuro[3,4-d]pyrimidin-2-yl)phenyl)urea] | 45 nM | 293 nM |  |
| CONC(=O)Nc1ccc(-c2nc3c(c(N4CCOC[C@@H]4C)n2)CCC2(CC2)O3)cc1 [Example 67, (S)-1-methoxy-3-(4-(4′-(3-methylmorpholino)-5′,6′-dihydrospiro[cyclopropane-1,7′-pyrano[2,3-d]pyrimidine]-2′-yl)phenyl)urea] | 853 nM | 10 nM |  |
| CNC(=O)Nc1ccc(-c2nc3c(c(N4CCOC[C@@H]4C)n2)COCC3)cc1 [Example 58, (S)-1-methyl-3-(4-(4-(3-methylmorpholino)-7,8-dihydro-5H-pyrano[4,3-d]pyrimidin-2-yl)phenyl)urea] | 173 nM | 7 nM |  |
| C[C@H]1COCCN1c1nc(-c2ccc(NC(=O)NC3COC3)cc2)nc2c1COCC2 [Example 25, (S)-1-(4-(4-(3-methylmorpholino)-7,8-dihydro-5H-pyrano[4,3-d]pyrimidin-2-yl)phenyl)-3-(oxetan-3-yl)urea] | 1500 nM | 13 nM |  |
| CCNC(=O)Nc1ccc(-c2nc3c(c(N4CCOC[C@@H]4C)n2)CCOC3)cc1 [Example 13 al, (S)-1-ethyl-3-(4-(4-(3-methylmorpholino)-6,8-dihydro-5H-pyrano[3,4-d]pyrimidin-2-yl)phenyl)urea] | 194 nM | 2 nM |  |
| C[C@H]1COCCN1c1nc(-c2ccc(NC(=O)NCCO)cc2)nc2c1CCCO2 [Example 33, (S)-1-(2-hydroxyethyl)-3-(4-(4-(3-methylmorpholino)-6,7-dihydro-5H-pyrano[2,3-d]pyrimidin-2-yl)phenyl)urea] | 111 nM | 1 nM |  |
| CCC[C@@]1(C)OCc2c(N3CCOCC3)nc(-c3ccc(NC(=O)NCC)cc3)nc21 [Example 73 ef (R), (R)-1-ethyl-3-(4-(7-methyl-4-morpholino-7-propyl-5,7-dihydrofuro[3,4-d]pyrimidin-2-yl)phenyl)urea] | 92 nM | 4 nM |  |
| C[C@H]1COCCN1c1nc(-c2ccc(NC(=O)NCCO)cc2)nc2c1CCC1(CC1)O2 [Example 65, (S)-1-(2-hydroxyethyl)-3-(4-(4′-(3-methylmorpholino)-5′,6′-dihydrospiro[cyclopropane-1,7′-pyrano[2,3-d]pyrimidine]-2′-yl)phenyl)urea] | 19 nM | 0.4 nM |  |
| O=C(Nc1ccc(-c2nc3c(c(N4CCOCC4)n2)CCC2(CC2)O3)cc1)NC1COC1 [Example 43, 1-(4-(4′-morpholino-5′,6′-dihydrospiro[cyclopropane-1,7′-pyrano[2,3-d]pyrimidine]-2′-yl)phenyl)-3-(oxetan-3-yl)urea] | 392 nM | 6 nM |  |
| CCNC(=O)Nc1ccc(-c2nc(N3CCOC[C@@H]3C)c3c(n2)[C@@](C)(CCN(C)CC)OC3)cc1 [Example 78 eq (R), 1-ethyl-3-(4-((R)-7-(2-(ethyl(methyl)amino)ethyl)-7-methyl-4-((S)-3-methylmorpholino)-5,7-dihydrofuro[3,4-d]pyrimidin-2-yl)phenyl)urea] |  | 47 nM | 161 nM |
| CCNC(=O)Nc1ccc(-c2nc(N3CCOC[C@@H]3C)c3c(n2)[C@@](C)(CC(C)O)OC3)cc1 (stereo partly drawn) [1-ethyl-3-(4-((7R)-7-(2-hydroxypropyl)-7-methyl-4-((S)-3-methylmorpholino)-5,7-dihydrofuro[3,4-d]pyrimidin-2-yl)phenyl)urea] | 39 nM | 2 nM |  |
| C[C@H]1COCCN1c1nc(-c2cnc(N)nc2)nc2c1CO[C@@]2(C)CCOc1ccccc1 [Example 104 gs (S), 5-((S)-7-methyl-4-((S)-3-methylmorpholino)-7-(2-phenoxyethyl)-5,7-dihydrofuro[3,4-d]pyrimidin-2-yl)pyrimidin-2-amine] | 145 nM | 231 nM |  |
| CCNC(=O)Nc1ccc(-c2nc3c(c(N4CCOCC4)n2)COC(c2ccccn2)C3)cc1 (stereo not shown) [1-ethyl-3-(4-(4-morpholino-7-(pyridin-2-yl)-7,8-dihydro-5H-pyrano[4,3-d]pyrimidin-2-yl)phenyl)urea] | 914 nM | 27 nM |  |
| C=CC[C@@]1(C)OCc2c(N3CCOC[C@@H]3C)nc(-c3ccc(NC(=O)NCC)cc3)nc21 [Example 85 ek^2] | 66 nM | 2 nM |  |
| CCNC(=O)Nc1ccc(-c2nc3c(c(N4C[C@@H]5C[C@H]4CO5)n2)CCCO3)cc1 [Example 3, 1-(4-(4-((1S,4S)-2-oxa-5-azabicyclo[2.2.1]heptan-5-yl)-6,7-dihydro-5H-pyrano[2,3-d]pyrimidin-2-yl)phenyl)-3-ethylurea] | 1200 nM | 22 nM |  |
| C[C@H]1COCCN1c1nc(-c2cnc(N)nc2)nc2c1COC2(C)C [Example 103, (S)-5-(7,7-dimethyl-4-(3-methylmorpholino)-5,7-dihydrofuro[3,4-d]pyrimidin-2-yl)pyrimidin-2-amine] | 41 nM | 15 nM |  |
| CCNC(=O)Nc1ccc(-c2nc(N3CCOC[C@@H]3C)c3c(n2)C(C)(CCn2ccnc2)OC3)cc1 (single isomer, unassigned) [Example 80 es (R)] | 454 nM | 9 nM |  |
| C[C@H]1COCCN1c1nc(-c2ccc(NC(=O)Nc3ccn(C)n3)cc2)nc2c1CCC1(CC1)O2 [Example 52, (S)-1-(1-methyl-1H-pyrazol-3-yl)-3-(4-(4′-(3-methylmorpholino)-5′,6′-dihydrospiro[cyclopropane-1,7′-pyrano[2,3-d]pyrimidine]-2′-yl)phenyl)urea] | 172 nM | 1 nM |  |
